Measured values as given in patent US8871767B2, “2-arylimidazo[1,2-B]pyridazine, 2-phenylimidazo[1,2-A]pyridine, and 2-phenylimidazo[1,2-A]pyrazine derivatives” (Hengrui (USA) Ltd., priority 2010, dated 2014).
Where two headings read alike, the source gives them in different places.

How the values were obtained:
[1] = test system: Hedgehog pathway activation (GLi-luciferase reporter) in Shh Light II reporter cells; test: Hedgehog pathway activation on Shh Light II reporter cells measured by luciferase activity; assay type: cell-based
Outline: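 Shh Light II reporter cells carrying a hedgehog-responsive GLi-luciferase reporter were stimulated either with 500 nM SAG, a direct Smoothened agonist, or with conditioned media containing human Sonic Hedgehog (hShh). Test compounds were evaluated for blocking this pathway activation, quantified by luciferase activity. Cell viability was monitored in parallel with the Celltiter-Blue® assay.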

[2] = test system: Hedgehog pathway activation on 10T1/2/Smo#3 cells (C3H10T1/2 cells transfected with human Smoothened receptor); test: Hedgehog pathway activation on 10T1/2/Smo#3 cells measured by ALP activity; assay type: cell-based
Outline: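 C3H10T1/2 cells stably expressing human Smoothened were activated with hShh-conditioned medium (10-20%) or 500 nM SAG, with test compounds present. Pathway block read as inhibited ALP activity (4-methylumbelliferyl phosphate fluorescence); viability checked by CellTiter-Blue. IC50 values reported.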

[3] = Mus musculus, Shh Light II, SAG activation (500 nM SAG), read-out: Shh Light II luciferase activity (SAG activation)
[4] = Mus musculus, Shh Light II, hShh activation, read-out: Shh (IC50, inhibition of Hedgehog pathway activation)
[5] = Mus musculus, Shh Light II, hShh activation, read-out: Shh Light II luciferase activity (hShh activation)
[6] = Mus musculus, C3H 10T1/2, 10T1/2/Smo#3 cells, hShh activation, ALP activity, read-out: 10T1/2/Smo#3 ALP activity (hShh Activation)
[7] = Mus musculus, C3H 10T1/2, 10T1/2/Smo#3 cells, measured by ALP activity, read-out: ALP (IC50, inhibition of Hedgehog pathway activation)
[8] = hShh activation, read-out: Shh (IC50, inhibition of Hedgehog pathway activation)
[9] = 10T1/2/Smo#3 cells, measured by ALP activity, read-out: ALP (IC50, inhibition of Hedgehog pathway activation)

| IC50 [1, 3] [nM] | IC50 [1, 4] [nM] | IC50 [1, 5] [nM] | IC50 [2, 6] [nM] | IC50 [2, 7] [nM] | IC50 [1, 8] [nM] | IC50 [2, 9] [nM] | Compound |
| --- | --- | --- | --- | --- | --- | --- | --- |
| 3000 to 30000 | 5440 | 3000 to 30000 | 3000 to 30000 | 4780 | – | – | Cc1c(-c2ccccc2)nc2ccc(N3CCNCC3)nn12 [Example 145, 3-methyl-2-phenyl-6-(piperazin-1-yl)imidazo[1,2-b]pyridazine] |
| 300 to 3000 | 158 | < 300 | < 300 | 213 | – | – | COC(=O)CCCCCCNC(=O)c1ccc(-c2ccc3nc(-c4ccc(C)c(NC(=O)C(C)(C)C)c4)cn3n2)c(C(F)(F)F)c1 [compound 509] |
| – | 149 | – | – | 218 | – | – | O=C(Nc1cc(-c2cn3nc(-c4cccnc4C(F)(F)F)ccc3n2)ccc1F)N1CCCC1 [Example 686, N-(2-fluoro-5-(6-(2-(trifluoromethyl)pyridin-3-yl)imidazo[1,2-b]pyridazin-2-yl)phenyl)pyrrolidine-1-carboxamide] |
| – | 308 | – | – | 1630 | – | – | COc1ccc(-c2ccc3nc(-c4ccc(C(F)(F)F)c(NC(=O)C(C)(C)C)c4)cn3n2)cc1 [Example 244, N-(5-(6-(4-methoxyphenyl)imidazo[1,2-b]pyridazin-2-yl)-2-(trifluoromethyl)phenyl)pivalamide] |
| – | – | – | – | – | 115 | 114 | CC(C)(C)C(=O)Nc1cc(-c2cn3nc(N4CCC(O)C4)ccc3n2)ccc1C(F)(F)F (stereo not shown) [Example 467, N-(5-(6-(3-hydroxypyrrolidin-1-yl)imidazo[1,2-b]pyridazin-2-yl)-2-(trifluoromethyl)phenyl)pivalamide] |
| – | – | – | – | – | 6230 | 3540 | N-(2-(2-(trifluoromethyl)pyridin-3-yl)-5-(6-(2-(trifluoromethyl)pyridin-3-yl)imidazo[1,2-b]pyridazin-2-yl)phenyl)pivalamide [Example 663] |
| 300 to 3000 | 926 | 300 to 3000 | < 300 | 232 | – | – | Cc1c(-c2ccccc2)nc2ccc(N3CCN(Cc4ccc(F)cc4)CC3)nn12 [Example 134, 6-(4-(4-fluorobenzyl)piperazin-1-yl)-3-methyl-2-phenylimidazo[1,2-b]pyridazine] |
| – | 9650 | – | – | > 10000 | – | – | COc1ccc2nc(-c3cc(NC(=O)C4CC4)ccc3Cl)cn2n1 [Example 116, N-(4-chloro-3-(6-methoxyimidazo[1,2-b]pyridazin-2-yl)phenyl)cyclopropanecarboxamide] |
| < 300 | 2100 | 300 to 3000 | 300 to 3000 | 1270 | – | – | Cc1c(-c2ccccc2)nc2ccc(N3CCN(C(=O)Cc4ccccc4)CC3)nn12 [Example 155, 1-(4-(3-methyl-2-phenylimidazo[1,2-b]pyridazin-6-yl)piperazin-1-yl)-2-phenylethanone] |
| – | 321 | – | – | 296 | – | – | Cc1ccc(-c2cn3nc(-c4cccc(N(C)C)c4)ccc3n2)cc1NC(=O)C(C)(C)C [Example 290, N-(5-(6-(3-(dimethylamino)phenyl)imidazo[1,2-b]pyridazin-2-yl)-2-methylphenyl)pivalamide] |
| – | 155 | – | – | 314 | – | – | CCOC(=O)C=Cc1cccc(C(=O)Nc2ccc3nc(-c4ccc(C)c(NC(=O)C(C)(C)C)c4)cn3n2)c1 [compound 602] |
| – | 27 | – | – | 85 | – | – | CC(C)(C)C(=O)Nc1cc(-c2cn3nc(-c4cccnc4C(F)(F)F)ccc3n2)ccc1F [Example 658, N-(2-fluoro-5-(6-(2-(trifluoromethyl)pyridin-3-yl)imidazo[1,2-b]pyridazin-2-yl)phenyl)pivalamide] |
| – | 86 | – | – | 239 | – | – | CCOC(=O)CCCCCCOc1ccc(C(F)(F)F)c(-c2ccc3nc(-c4ccc(C)c(NC(=O)C(C)(C)C)c4)cn3n2)c1 [Example 425, ethyl 7-(3-(2-(4-methyl-3-pivalamidophenyl)imidazo[1,2-b]pyridazin-6-yl)-4-(trifluoromethyl)phenoxy)heptanoate] |
| – | 1780 | – | – | 1670 | – | – | CCOc1ccc2nc(-c3ccc(C(F)(F)F)c(NC(=O)C(C)C)c3)cn2n1 [Example 185, N-(5-(6-ethoxyimidazo[1,2-b]pyridazin-2-yl)-2-(trifluoromethyl)phenyl)isobutyramide] |
| – | 20 | – | – | 60 | – | – | Cc1ccc(-c2cn3nc(-c4ccc(C#N)cc4Cl)ccc3n2)cc1NC(=O)C(C)(C)C [compound 564] |
| – | 254 | – | – | 658 | – | – | CC(C)(C)CC(=O)Nc1cc(-c2cn3nc(-c4cccnc4C(F)(F)F)ccc3n2)ccc1F [Example 679, N-(2-fluoro-5-(6-(2-(trifluoromethyl)pyridin-3-yl)imidazo[1,2-b]pyridazin-2-yl)phenyl)-3,3-dimethylbutanamide] |
| – | 391 | – | – | 1060 | – | – | Cc1ccc(-c2cn3nc(-c4ccc(C=CC(=O)NOC5CCCCO5)cc4)ccc3n2)cc1NC(=O)C(C)(C)C (stereo not shown) [compound 558] |
| < 300 | 6 | < 300 | < 300 | 86 | – | – | Cc1ccc(-c2cn3nc(-c4ccc(C(=O)O)cc4C(F)(F)F)ccc3n2)cc1NC(=O)C(C)(C)C [Example 479, 4-(2-(4-methyl-3-pivalamidophenyl)imidazo[1,2-b]pyridazin-6-yl)-3-(trifluoromethyl)benzoic acid] |
| 300 to 3000 | 4970 | 300 to 3000 | < 300 | 110 | – | – | Cc1ccc(-c2cn3nc(C4CC4)ccc3n2)cc1NC(=O)C(C)(C)C [Example 127, N-(5-(6-cyclopropylimidazo[1,2-b]pyridazin-2-yl)-2-methylphenyl)pivalamide] |
| 300 to 3000 | 712 | 300 to 3000 | 300 to 3000 | 488 | – | – | Cc1ccc(-c2cn3nc(N4CCN(Cc5ccc(F)cc5)CC4)ccc3n2)cc1NC(=O)C(C)(C)C [Example 123, N-(5-(6-(4-(4-fluorobenzyl)piperazin-1-yl)imidazo[1,2-b]pyridazin-2-yl)-2-methylphenyl)pivalamide] |
| – | 338 | – | – | 478 | – | – | COCCN(C)c1ccc2nc(-c3ccc(C(F)(F)F)c(NC(=O)C(C)(C)C)c3)cn2n1 [Example 299, N-(5-(6-((2-methoxyethyl)(methyl)amino)imidazo[1,2-b]pyridazin-2-yl)-2-(trifluoromethyl)phenyl)pivalamide] |
| – | 283 | – | – | 631 | – | – | CC(C)OC(=O)Nc1cc(-c2cn3nc(-c4cccnc4C(F)(F)F)ccc3n2)ccc1Cl [Example 668, isopropyl 2-chloro-5-(6-(2-(trifluoromethyl)pyridin-3-yl)imidazo[1,2-b]pyridazin-2-yl)phenylcarbamate] |
| – | 1040 | – | – | > 10000 | – | – | COc1cccc(-c2ccc3nc(-c4ccc(C(F)(F)F)c(NC(=O)C(C)(C)C)c4)cn3n2)n1 [Example 147, N-(5-(6-(6-methoxypyridin-2-yl)imidazo[1,2-b]pyridazin-2-yl)-2-(trifluoromethyl)phenyl)pivalamide] |
| – | 254 | – | – | 229 | – | – | CCc1ccc(-c2cn3nc(-c4cccnc4C(F)(F)F)ccc3n2)cc1NC(=O)C1(C)COC1 [Example 696, N-(2-ethyl-5-(6-(2-(trifluoromethyl)pyridin-3-yl)imidazo[1,2-b]pyridazin-2-yl)phenyl)-3-methyloxetane-3-carboxamide] |
| – | 491 | – | – | 462 | – | – | CC(C)(C)C(=O)Nc1cc(-c2cn3nc(N4CCS(=O)(=O)CC4)ccc3n2)ccc1C(F)(F)F [Example 287, N-{5-[6-(1,1-dioxidothiomorpholin-4-yl)imidazo[1,2-b]pyridazin-2-yl]-2-(trifluoromethyl)phenyl}-2,2-dimethylpropanamide] |
| 300 to 3000 | 608 | 300 to 3000 | 300 to 3000 | 1940 | – | – | CC(C)(C)C(=O)Nc1cc(-c2cn3nc(-c4nccs4)ccc3n2)ccc1C(F)(F)F [Example 148, N-(5-(6-(thiazol-2-yl)imidazo[1,2-b]pyridazin-2-yl)-2-(trifluoromethyl)phenyl)pivalamide] |
| – | 140 | – | – | 1080 | – | – | Cc1ccc(-c2cn3nc(-c4cccnc4C(F)(F)F)ccc3n2)cc1NC(=O)CCCCCCC(=O)NOC1CCCCO1 (stereo not shown) [compound 557, N1-(2-methyl-5-(6-(2-(trifluoromethyl)pyridin-3-yl)imidazo[1,2-b]pyridazin-2-yl)phenyl)-N8-((tetrahydro-2H-pyran-2-yl)oxy)octanediamide] |
| < 300 | 43 | < 300 | < 300 | 43 | – | – | CC(C)(C)C(=O)Nc1cc(-c2cn3nc(-c4cc(C(F)(F)F)ccc4F)ccc3n2)ccc1C(F)(F)F [Example 207, N-(5-(6-(2-fluoro-5-(trifluoromethyl)phenyl)imidazo[1,2-b]pyridazin-2-yl)-2-(trifluoromethyl)phenyl)pivalamide] |
| – | 311 | – | – | 226 | – | – | CCc1ccc(-c2cn3nc(-c4ccccc4C#N)ccc3n2)cc1NC(=O)C(C)(C)C [Example 296, N-(5-(6-(2-cyanophenyl)imidazo[1,2-b]pyridazin-2-yl)-2-ethylphenyl)pivalamide] |
